Earlier results in patent US10213524B2, “Coating comprising strontium for body implants” (ELOS MEDTECH PINOL A/S, priority 2012, dated 2019).

Tested on: mice
Conditions: intravenous injection

CC(=O)[O-].CC(=O)[O-].[Sr+2] [strontium acetate]
toxic concentration (can cause mortality): ~40 mg/kg Sr
